From ChEMBL document CHEMBL1132474, “Synthesis and biological evaluation of the first N-alkyl cage dimeric 4-aryl-1,4-dihydropyridines as novel nonpeptidic HIV-1 protease inhibitors” (J Med Chem, 1999)

Legend:
[1] = molecular target: T1, Human immunodeficiency virus type 1 protease (Human immunodeficiency virus 1, UniProt Q72874); assay: compound was evaluated for the inhibition of HIV-1 protease
[2] = molecular target: T1, Human immunodeficiency virus type 1 protease; assay: Compound was evaluated for its binding affinity against HIV-1 protease

OC[C@]12C3N(Cc4ccccc4)C4[C@](CO)(C5N(Cc6ccccc6)C1[C@]3(CO)[C@H](c1ccccc1)[C@@]45CO)[C@H]2c1ccccc1
IC50 [1]: 16.1 µM
Ki [2]: 7.8 µM

COc1ccc([C@H]2[C@@]3(CO)C4N(Cc5ccccc5)C5[C@]2(CO)C2N(Cc6ccccc6)C3[C@]4(CO)[C@H](c3ccc(OC)cc3)[C@@]52CO)cc1
IC50 [1]: 33 µM

OC[C@]12C3NC4[C@](CO)(C5NC1[C@]3(CO)[C@H](c1ccccc1)[C@@]45CO)[C@H]2c1ccccc1
IC50 [1]: 227 µM

COc1ccc([C@H]2[C@]3(CO)C4NC5[C@@]2(CO)C2NC3[C@@]4(CO)[C@H](c3ccc(OC)cc3)[C@]52CO)cc1
IC50 [1]: 209 µM

CN1C2[C@]3(CO)C4N(C)C5[C@@](CO)(C1[C@@]5(CO)[C@@H](c1ccccc1)[C@]24CO)[C@H]3c1ccccc1
IC50 [1]: 262 µM

COc1ccc([C@H]2[C@]3(CO)C4N(C)C5[C@]2(CO)C2N(C)C3[C@]4(CO)[C@H](c3ccc(OC)cc3)[C@]52CO)cc1
IC50 [1]: 195 µM
